For assay [1] the following is noted: times that of saccharose, cited from earlier work.
The nature of assay [2]: electronic tongue tasting, intelligent gustation analysis system TS-5000Z. To be noted: 1% (mass concentration) saccharose as standard; FIG. 1-FIG. 3. From the text: Method II: an intelligent gustation analysis system TS-5000Z, namely an electronic tongue is adopted to perform tasting, an artificial fat membrane sensor technology, of which an operating principle is similar to that of human tongue gustation cells, is employed, basic gustatory sensory indexes such as bitter taste, astringent taste, sour taste, saline taste, fresh taste, sweet taste and raw material original taste of samples such as foods or drugs can be objectively and digitally evaluated, and meanwhile, a bitter aftertaste, an astringent aftertaste and a fresh aftertaste (abundance) can be further analyzed. Drawing is performed according to test data, and electronic tongue tasting test data graphs of the natural compound sweeteners in the embodiments 1-3 are separately shown in FIG. 1-FIG. 3.

As for `C[C@H](CC[C@@H](O[C@@H]1O[C@H](CO[C@@H]2O[C@H](CO)[C@@H](O)[C@H](O)[C@H]2O)[C@@H](O)[C@H](O)[C@H]1O[C@@H]1O[C@H](CO)[C@@H](O)[C@H](O)[C@H]1O)C(C)(C)O)[C@H]1CC[C@@]2(C)[C@@H]3CC=C4[C@@H](CC[C@H](O[C@@H]5O[C@H](CO[C@@H]6O[C@H](CO)[C@@H](O)[C@H](O)[C@H]6O)[C@@H](O)[C@H](O)[C@H]5O)C4(C)C)[C@]3(C)[C@H](O)C[C@]12C` [Mogroside V], the “maximum sweetness relative to saccharose” value in assay [1] was 420 times.
Turning to `C=C1C[C@@]23CC[C@H]4[C@@](C)(CCC[C@@]4(C)C(=O)O[C@@H]4O[C@H](CO)[C@@H](O)[C@H](O)[C@H]4O)[C@@H]2CC[C@]1(O[C@@H]1O[C@H](CO)[C@@H](O)[C@H](O[C@@H]2O[C@H](CO)[C@@H](O)[C@H](O)[C@H]2O)[C@H]1O[C@@H]1O[C@H](CO)[C@@H](O)[C@H](O)[C@H]1O)C3` [rebaudioside A], in assay [2], the “electronic tongue taste profile” value is recorded as “partial to a herbal medicine taste, namely a raw-material original taste is very strong”.
Turning to rebaudioside C [Reb C], in assay [1] (from CN104144605A discussion), the “sweetness relative to saccharose” value is 300 times.

The values are drawn from US11464250B2, “Natural compound sweetener and preparation method therefor” (HUNAN HUACHENG BIOTECH INC., priority 2017, dated 2022).
